Laboratory results published in patent US8414938B2, “Schisandrae fructus extracts for inhibition or prevention of H1N1 influenza virus infection and its application thereof” (National Defense Medical Center, priority 2011, dated 2013).
Converted amounts (≈) assume the structure as drawn.

Test system: H1N1-TR (Tamiflu resistant virus strain)
Assay: microbe, parasite or virus in culture
Assay type: cell-based
Settings: unidentified influenza virus, H1N1, read-out: MIC, H1N1-TR

Structure (SMILES)	MIC [µg/mL]
COc1cc2c(c(OC)c1OC)-c1c(cc3c(c1OC)OCO3)C[C@H](C)[C@@](C)(O)[C@H]2OC(=O)c1ccccc1 (atropisomer, axis not shown) [Benzoylgomisin P]	12.5 (≈ 23.3 µM)
NC(=O)c1ncn([C@@H]2O[C@H](CO)[C@@H](O)[C@H]2O)n1 [Ribavirin, ribavirin, reference compound]	3.12 (≈ 12.8 µM)
C/C=C(\C)C(=O)O[C@H]1c2cc(OC)c(OC)c(OC)c2-c2c(cc3c(c2OC)OCO3)C[C@H](C)[C@@]1(C)O (atropisomer, axis not shown) [Tigloylgomisin P]	75 (≈ 146 µM)
COc1cc([C@@H]2c3cc(OC)c(O)cc3C(=O)[C@@H](C)[C@H]2C)ccc1O [Wulignan A1]	12.5 (≈ 36.5 µM)
COc1cc2c(cc1O)C(=O)[C@@H](C)[C@@H](C)[C@@H]2c1ccc(OC)c(OC)c1 [Schisandrone]	6.25 (≈ 17.5 µM)
COc1cc([C@@H]2c3cc(OC)c(O)cc3C(=O)[C@H](C)[C@H]2C)ccc1O [Epiwulignan A1]	12.5 (≈ 36.5 µM)
